# Experimental data reported in the NIST ThermoML archive (doi:10.1021/je0340046).
# Several values for one entry are separate records, joined by “and”; a condition that tells them apart may be missing. Equal values may be shown once. Numbers after ± are expanded uncertainties.
# Details: Liquid, Closed cell (Static) method
compound,measurement,setting,value
COC [dimethyl ether],vapor or sublimation pressure,233.13 K,54.61 ± 1.4 kPa
same,vapor or sublimation pressure,238.13 K,68.49 ± 1.4 kPa
same,vapor or sublimation pressure,243.16 K,85.57 ± 1.4 kPa
same,vapor or sublimation pressure,248.15 K,105.59 ± 1.4 kPa
same,vapor or sublimation pressure,253.15 K,129.42 ± 1.4 kPa
same,vapor or sublimation pressure,258.16 K,157.53 ± 1.4 kPa
same,vapor or sublimation pressure,263.16 K,190.44 ± 1.4 kPa
same,vapor or sublimation pressure,268.16 K,228.48 ± 1.4 kPa
same,vapor or sublimation pressure,273.15 K,272.17 ± 1.5 kPa
same,vapor or sublimation pressure,278.14 K,321.87 ± 1.5 kPa
same,vapor or sublimation pressure,283.16 K,378.66 ± 1.5 kPa
same,vapor or sublimation pressure,288.17 K,443.57 ± 1.5 kPa
same,vapor or sublimation pressure,293.16 K,515.53 ± 1.6 kPa
same,vapor or sublimation pressure,298.17 K,596.21 ± 1.6 kPa
same,vapor or sublimation pressure,303.16 K,687.37 ± 1.7 kPa
same,vapor or sublimation pressure,305.16 K,726.26 ± 1.8 kPa
same,vapor or sublimation pressure,308.16 K,787.07 ± 1.8 kPa
same,vapor or sublimation pressure,313.16 K,897.59 ± 1.9 kPa
same,vapor or sublimation pressure,316.15 K,968.55 ± 2 kPa
same,vapor or sublimation pressure,318.16 K,1018.9 ± 2 kPa
same,vapor or sublimation pressure,323.15 K,1152.3 ± 2.2 kPa
same,vapor or sublimation pressure,328.15 K,1298.2 ± 2.3 kPa
same,vapor or sublimation pressure,333.16 K,1457.5 ± 2.5 kPa and 1457.8 ± 2.5 kPa
same,vapor or sublimation pressure,338.15 K,1631 ± 2.7 kPa
same,vapor or sublimation pressure,343.15 K,1818.8 ± 3 kPa
same,vapor or sublimation pressure,348.15 K,2022.5 ± 3.2 kPa
same,vapor or sublimation pressure,353.15 K,2242.7 ± 3.5 kPa
same,vapor or sublimation pressure,353.16 K,2243.1 ± 3.5 kPa
same,vapor or sublimation pressure,358.14 K,2479.9 ± 3.9 kPa
same,vapor or sublimation pressure,363.15 K,2735.7 ± 4.3 kPa
same,vapor or sublimation pressure,368.16 K,3010.8 ± 4.7 kPa
same,vapor or sublimation pressure,373.15 K,3305.7 ± 5.2 kPa
same,vapor or sublimation pressure,378.15 K,3622.6 ± 5.7 kPa
same,vapor or sublimation pressure,383.14 K,3962.2 ± 6.2 kPa
same,vapor or sublimation pressure,388.15 K,4331.5 ± 6.8 kPa
same,vapor or sublimation pressure,393.16 K,4725 ± 7.4 kPa
same,vapor or sublimation pressure,398.16 K,5146.8 ± 8 kPa
same,vapor or sublimation pressure,400.38 K,5355.8 ± 8.4 kPa
